Data reported in US20220041616A1, “SPIRO COMPOUND AND MEDICAL USES THEREOF” (The National Institutes of Pharmaceutical R&D Co., Ltd., priority 2018, published 2022).

System: HepG2 cells
Test: In vitro inhibition of fatty acid synthesis in HepG2 cells ([14C]-acetate incorporation)
Assay type: cell-based, human
Conditions: 1 h compound, then 5 h [2-14C]-acetic acid
Procedure: Human liver tumor cells (HepG2 cells) with strong fatty acid synthesis ability were selected. The sample to be tested was added and incubated for 1 hour. Isotope-labeled [^14C]-sodium acetate was added to the cell culture medium and incubated for 5 hours. Then the cells were lysed, and the fatty acid components in the cell were extracted and separated. The relative content of the isotope integrated into the fatty acid was analyzed, so as to detect the inhibitory effect of the compound on fatty acid synthesis in HepG2 cells at different concentrations, and the IC50 value was calculated.
a. HepG2 cells were purchased from the American type culture collection (ATCC) resource bank. Cells were cultured in DMEM (GIBCO) containing 10% fetal bovine serum (GIBCO), penicillin (100 units/mL) and streptomycin (100 μg/mL) (GIBCO), and then incubated in a 37° C. incubator containing 5% carbon dioxide, and passaged once every 2 to 3 days.
b. On the first day, HepG2 cells were inoculated in a 24-well cell culture plate at 2×10^5 per well, and were incubated in a 37° C. incubator containing 5% carbon dioxide.
c. On the fourth day, the medium was changed to that containing the compound. The initial concentration of the compound was 3 μM or 0.3 μM, 3-fold dilution, 8 concentration gradients, and the final concentration of DMSO was 0.5% (v/v). The plate was incubated in a 37° C. incubator containing 5% carbon dioxide for 1 hour. GS-0976 was positive compound control; the reaction system with no compound but DMSO at a final concentration of 0.5% was negative control.
d. 1 μCi [2-^14C]-acetic acid was added to each well, and incubated for 5 hours in a 37° C. incubator containing 5% carbon dioxide.
e. The medium was first transferred to 15 mL centrifuge tubes. 0.5 mL of 0.1 M NaOH was added to each well of cells, and the lysed cell suspension was added to the corresponding 15 mL centrifuge tubes. 1 mL of ethanol and 0.17 mL of 50% KOH were added to each tube, and incubated in a water bath at 90° C. for 1 hour.
f. The sample were taken out and cooled to room temperature, then 5 mL petroleum ether was added to each tube, inverted several times, and centrifuged at 1000 rpm for 5 min. The upper organic phase was discarded and the aqueous phase was kept for fatty acid extraction. 1 mL of concentrated hydrochloric acid (its pH was ensured to be below 1) was added to each tube.
g. 5 mL petroleum ether was added to each tube, invert several times and centrifuged at 1000 rpm for 5 min. 4 mL petroleum ether layer was transferred to a new glass tube (18×180 mm). This step was repeated once.
h. The extracts were collected and placed in a water bath at 64° C. to evaporate for 30 min. Fatty acids were dissolved with 400 μL chloroform/n-hexane (1:1).
i. 50 μL sample were placed in iso-plate (Perkinelmer), 200 μL ULTIMA GOLD (Perkinelmer) was added to each well and incubated for 10 min at room temperature.
j. MicroBeta (Perkinelmer) was used to record the CPM scintillation signal.
The average value of the positive and negative control well and the standard deviation were calculated. IC50 was fitted by using XLFit 5.3.1.3 (2006-2011 ID Business Solutions Limited) with 4-Parameter Logistic Model or Sigmoidal Dose-Response Model:
Y=(Bottom+((Top−Bottom)/(1+((Log IC50/X)^Hillslope)))),
wherein X is the logarithm of the compound concentration, Y is CPM (count per minute); Top and Bottom are the Y values at the highest and lowest plateau of the curve; Hillslope is the Hill constant.

IC50 | Structure (SMILES)
< 50 nM | COc1ccccc1C(CN1C(=O)C2(CCC(C(=O)O)C2)C(=O)c2c1sc(-c1ncco1)c2C)OC1CCOCC1 (mixture of isomers) [Compound 5y, 7′-(2-(2-methoxyphenyl)-2-((tetrahydro-2H-pyran-4-yl)oxy)ethyl)-3′-methyl-2′-(oxazol-2-yl)-4′,6′-dioxo-6′,7′-dihydro-4′H-spiro[cyclopentane-1,5′-thieno[2,3-b]pyridine]-3-carboxylic Acid]

Same assay, conditions: Homo sapiens, HepG2, 1 h compound, then 5 h [2-14C]-acetic acid

Structure (SMILES) | IC50
COc1ccccc1C(CN1C(=O)C2(CC(C(=O)O)C2)C(=O)c2c1sc(-c1ncco1)c2C)OC1CCOCC1 (mixture of isomers) [Compound 8, 7′-(2-(2-methoxyphenyl)-2-((tetrahydro-2H-pyran-4-yl)oxy)ethyl)-3′-methyl-2′-(oxazol-2-yl)-4′,6′-dioxo-6′,7′-dihydro-4′H-spiro[cyclobutane-1,5′-thieno[2,3-b]pyridine]-3-carboxylic Acid] | < 50 nM
COc1ccccc1[C@H](CN1c2sc(-c3ncco3)c(C)c2C(=O)[C@]2(C[C@H](C(=O)O)C2)C1=O)OC1CCOCC1 [Compound 8c, 7′-(2-(2-methoxyphenyl)-2-((tetrahydro-2H-pyran-4-yl)oxy)ethyl)-3′-methyl-2′-(oxazol-2-yl)-4′,6′-dioxo-6′,7′-dihydro-4′H-spiro[cyclobutane-1,5′-thieno[2,3-b]pyridine]-3-carboxylic Acid] | < 50 nM

Continued, values first:

IC50 | Structure (SMILES)
50 to 500 nM | COc1ccccc1C(CN1C(=O)C2(CCC(C(=O)O)C2)C(=O)c2c1sc(-c1ncco1)c2C)OC1CCOCC1 (mixture of isomers) [Compound 5x, 7′-(2-(2-methoxyphenyl)-2-((tetrahydro-2H-pyran-4-yl)oxy)ethyl)-3′-methyl-2′-(oxazol-2-yl)-4′,6′-dioxo-6′,7′-dihydro-4′H-spiro[cyclopentane-1,5′-thieno[2,3-b]pyridine]-3-carboxylic Acid]
< 50 nM | COc1ccccc1C(CN1C(=O)C2(CCC(C(=O)O)C2)C(=O)c2c1sc(-c1ncco1)c2C)OC1CCOCC1 (single isomer, unassigned) [Compound 5b, 7′-(2-(2-methoxyphenyl)-2-((tetrahydro-2H-pyran-4-yl)oxy)ethyl)-3′-methyl-2′-(oxazol-2-yl)-4′,6′-dioxo-6′,7′-dihydro-4′H-spiro[cyclopentane-1,5′-thieno[2,3-b]pyridine]-3-carboxylic Acid]
< 50 nM | COc1ccccc1C(CN1C(=O)C2(CC(C(=O)O)C2)C(=O)c2c1sc(-c1ncco1)c2C)OC1CCOCC1 (single isomer, unassigned) [Compound 8d, 7′-(2-(2-methoxyphenyl)-2-((tetrahydro-2H-pyran-4-yl)oxy)ethyl)-3′-methyl-2′-(oxazol-2-yl)-4′,6′-dioxo-6′,7′-dihydro-4′H-spiro[cyclobutane-1,5′-thieno[2,3-b]pyridine]-3-carboxylic Acid]
